# Source: a melting point compilation (Tetko et al.; mined from patent text by program, amines drawn as free bases though some values may be those of a salt)
row,Compound,melting point [°C]
1,O=C(c1ccc(Cl)cc1)c1cnc2ccc(Cl)cc2c1Cl,170
2,CC(C(N)=S)(c1ccccc1)c1ccccn1 (stereo not given),186 to 188
3,N#Cc1nn(-c2c(Cl)cc(C(F)(F)F)cc2Cl)c(N)c1-c1cc(Br)no1,227
4,COc1cc(-c2ccc(=O)[nH]n2)ccc1OC(F)F,170
5,COc1cccc(CNc2ncnc3c2sc2nc(N4CCCC4)c4c(c23)CC(C)(C)OC4)c1OC,166 to 168
6,C[C@@H](S[C@H]1CC[C@H](/C=C/C=C/c2ccc(C(F)(F)F)cc2)CC1)[C@](O)(Cn1cncn1)c1ccc(F)cc1F,74 to 76
7,COC(=O)CNc1ccc2c(c1)OCO2,105 to 106
8,O=C(CCc1cccnc1)NCCCCC1CCN(C(c2ccccc2)c2ccccc2)CC1,139
9,COC(=O)Cc1c(O)c(C)nn1C,119 to 120
10,CCCCCCCCCCCCCCCCS(=O)(=O)Nc1ccc(OC)c(NC(=O)CC(=O)C2(C)COC(C)(C)OC2)c1,68 to 70
11,Cc1ccc(S(=O)(=O)OCC2COc3ccccc3O2)cc1 (stereo not given),79
12,OC(c1ccc(F)cc1)(c1ccc(F)cc1)C1CCN(Cc2ccccc2)CC1,113 to 115
13,CCOC(=O)Nc1ccc(N2CCN([C@H](C)[C@](O)(Cn3cncn3)c3ccc(F)cc3F)CC2)cc1,90 to 92
14,CCOC(=O)C1=C(COc2cccnc2)NC(COc2cccnc2)=C(C(=O)OCC)C1c1cccc([N+](=O)[O-])c1,206 to 208
15,NS(=O)(=O)c1cccc(N/C=C2\C(=O)Nc3ccccc32)c1,> 250
16,O=c1cc(-c2ccncc2)nc2n1CCN2CCCc1c[nH]c2ccccc12,218 to 220
17,Fc1ccc(N2CCN(Cc3n[nH]c4ccccc34)CC2)cc1,191 to 192
18,CC(C)(C)OC(=O)NC12CC3CC(CC(O)(C3)C1)C2,131 to 132
19,CCN(CC)CCOc1ccc(Nc2ncc3c(n2)N(c2cccc(CCO)c2)C(=O)N(c2ccccc2Br)C3)cc1,98
20,CC(=O)Nc1nc(CCc2ccc(CO)cc2)cs1,162 to 165

row,Compound,melting point [°C]
1,Cc1ccsc1-c1nc(-c2c(F)cccc2Cl)nn1C,80 to 82
2,Cc1nc(NCCc2ccccc2)sc1-c1ccnc(Nc2ccc(N3CCOCC3)cc2)n1,226 to 228
3,O=C(O)CCc1cc(C(c2cc(F)ccc2F)S(=O)(=O)c2ccc(Cl)cc2)c(F)cn1 (stereo not given),89 to 91
4,COc1ccc(CS(=O)(=O)/C(=C/c2c(OC)cc(OC)cc2OC)C(=O)c2ccc(OC)cc2)cc1,60 to 62
5,Cc1c(C)c2c(c(C)c1NC(=O)CC(C)(C)C)C(c1cccc(C3OCCO3)c1)CO2 (stereo not given),168 to 169
6,COC(=O)C(C)(C)S(=O)(=O)N1CCC(c2ccc(-c3cccc(OCCO)n3)c(C)c2)CC1,108 to 111
7,CC(C)=CCCC(C)=CCOc1ccc(C(=O)NCCc2ccncc2)cc1,85.2 to 86.1
8,CCOC(=O)CCCOc1ccc2c(c1)C[C@@H](NC(=O)OC(C)(C)C)CC2,96 to 98
9,COc1ccc2cc(C(=O)NCc3cc([N+](=O)[O-])cc([N+](=O)[O-])c3)c(=O)oc2c1,233
10,Cn1nc(O)c(Cl)c1Cl,212 to 216
11,CC(C)(C)OC(=O)Cn1c(C(=O)O)cc2cc(NC(=O)OC(C)(C)C)ccc21,> 300
12,Cc1cc2c(cc1N1CCCCC1)OC(=O)C2C (stereo not given),61 to 63
13,CCOC(Cc1ccc(OCCn2c(=O)sc3cc(C(=O)c4ccccc4)ccc32)cc1)C(=O)OC (stereo not given),118 to 119
14,OC1(c2cc(F)cc(CC#COC#CCc3cc(F)cc(C4(O)CCOCC4)c3)c2)CCOCC1,120 to 122
15,Cc1ccc2c(c1O)NC(S(=O)O)C1CC(C=CC(N)=O)=CN1C2=O (stereo not given),252 to 255
16,O=c1c(Cl)c(CCl)nc2scnn12,193 to 195
17,CCCCCON=C(C(=O)OCC)c1csc(N)n1,86 to 88
18,O=S1(=O)c2cccc3cccc(c23)N1CCN1CC=C(Cc2c[nH]c3ccc(F)cc23)CC1,128
19,C=C(C)C(=O)Nc1ccc2ccc(Cl)nc2n1,182
20,CCc1ccc(Cc2c(OC)cccc2OC)cc1,62.5 to 66.5

row,Compound,melting point [°C]
1,CCn1c(=O)c(C(=O)NCCO)c(NCCO)c2cnc(-c3ccccc3)nc21,250 to 253
2,CCN(CC)C(=O)Cc1c(-c2ccc(O)cc2)nn2c(C)cc(C)nc12,242 to 247
3,"CC(CN(C)C)CN1c2ccccc2OCOc2ccc(Cl)cc21 (single isomer, unassigned; (-))",92 to 95
4,Cc1nc(Cl)c2c(n1)N(c1c(C)cc(Br)cc1C)C(=O)C2C (stereo not given),148 to 150
5,Cn1nc(Cl)c(C2=NOCCO2)c1S(N)(=O)=O,158
6,CCOC(=O)n1c(C(=O)c2cncnc2)c(NC(C)=O)c2ccc(Cl)cc21,214 to 215
7,NC(=O)[C@H](CO)Nc1nc(SCc2cccc(F)c2F)nc2nc(N)sc12,145 to 151
8,CC(C)c1cccc(C(C)C)c1NC(=O)N(Cc1ccccc1)CC1(c2ccccc2)CCCC1,124 to 127
9,CN1C(=O)C(C(=O)Nc2cccc(F)c2)S(=O)(=O)c2ccccc21 (stereo not given),206 to 208
10,CC1CC2C(=C(Cl)C=CC2(F)n2[nH]c3c(c2=O)CCCC3)O1 (stereo not given),240 to 242
11,CS(=O)(=O)NC(=O)c1ccc(OCCn2ccnc2)cc1,198 to 199
12,CCOC(=O)c1cc(=O)c2cccc(N3CCN(C)CC3)c2o1,124 to 125
13,COc1cccc2[nH]cc(/C(C#N)=C/c3cccnc3)c12,177
14,COC(=O)CCCCNC(=NC(=O)OCc1ccccc1)NC(=O)OCc1ccccc1,36 to 39
15,CC1(C)O[C@H]2CC(O)=C(O)C(=O)[C@H]2O1,153 to 154
16,O=C(O)c1cc(OCC(F)(F)F)ccc1OCC(F)(F)F,99 to 101
17,CCCCCCCCC(C)C(N)=O (stereo not given),80 to 81
18,Cc1c(C)c2ccc(OCc3ccccc3)cc2oc1=O,131 to 135
19,CC(=O)N1CC(=O)Nc2ccccc21,164 to 165

# Further lines, results first:
row,melting point [°C],Compound
1,86 to 88,CCC(CN1C(=O)c2ccccc2C1=O)N1CCC(c2noc3cc(F)ccc23)CC1 (stereo not given)
2,188 to 189,Clc1ccc(Cl)c(-c2csc(NC3=NCCCN3)n2)c1
3,148 to 152,CN1C(=O)C=C(c2ccccc2)C1(C)O (stereo not given)
4,104 to 105,CCOc1cc(Cn2cc(CCC(=O)O)c(-c3ccccc3)c2)cc(OCc2csc(-c3cccs3)n2)c1
5,213,CCOC(=O)NC(=NC(=O)c1nc(Cl)c(N)nc1N)NC(=O)OCC
6,109,CN(C)C(=O)C1Oc2ccc([N+](=O)[O-])cc2O1 (stereo not given)
7,179 to 181,CCOC(=O)NC1CCN(c2ncnc3cc(OC)c(OC)cc23)CC1
8,197,COc1ccc(CN(C)CCc2ccc(NC(=O)c3cccc4c(=O)c5cccc([N+](=O)[O-])c5[nH]c34)cc2)cc1OC
9,112 to 114,CCOC(=O)Nc1ccc(CCBr)c(Cl)c1
10,225 to 235,N#CC(C(=O)c1ccc(Cl)cc1)c1ccncc1 (stereo not given)
11,109 to 112,CC1=C(C)C(=O)C(CC[C@](C)(O)CO)=C(C)C1=O
12,168 to 170,CN(C)C=C(C1=NCCCS1)[N+](=O)[O-]
13,185 to 186,CNC(=NCCS(=O)Cc1[nH]cnc1C)NC#N (stereo not given)
14,64 to 66,CO/C=C(/C(=O)OC)c1ccccc1COc1cccc(N2CCCCC2)c1
15,221 to 224,O=C(O)c1cc(=O)c2cccc(COc3ccc(OCc4ccc5ccccc5n4)cc3)c2o1
16,120 to 122,O=Cc1cccc2c1CN(c1ccccc1)C2
17,194 to 196,CCc1nnc2ccc(-c3ccc(C(F)(F)F)cc3)nn12
18,98 to 101,Cn1ccnc1Sc1ccc(Nc2c(C#N)cnc3cc(-c4ccc(C(=O)N5CCOCC5)cc4)ccc23)cc1Cl
19,87 to 89,NC(=O)CCCCCc1ccc(Cl)cc1
20,112 to 113,CC#CC(C)(C)NC(=O)C(CC)Oc1cncc(C#N)c1 (stereo not given)
21,204,O=c1cc(C(F)(F)F)[nH]c(=O)n1-c1cc([N+](=O)[O-])c(Cl)cc1F

row,melting point [°C],Compound
1,125 to 127,COc1cc(C(C)C)c2c(c1)S(=O)(=O)N(COC(=O)c1ccsc1)C2=O
2,119 to 120,CCC1(CCCN2CCN(c3cccc(Cl)c3)CC2)C(=O)Nc2ccccc21 (stereo not given)
3,130 to 131,O=Cc1ccc(OCCC2Oc3ccccc3N(Cc3cccc(Cl)c3)C2=O)cc1 (stereo not given)
4,96 to 101,CNC(=O)C(C)(C)N(OC(C)(C)C#N)C(C)(C)C
5,168 to 169,CCCC(=O)NC1=NN(c2cccc(Cl)c2)CC1
6,199 to 201,CCOC(=O)Cc1c(-c2ccc(OC)cc2)sc2c1c(=O)c(C(=O)OCC)cn2Cc1ccccc1F
7,296 to 298,COc1cc(OC)c(/C=C/S(=O)(=O)Nc2ccc(OC)c(NC(C)=O)c2)c(OC)c1
8,87 to 100,CC(=O)Nc1ccc(C[C@H](NC(=O)N(CCOC(C)=O)CCc2ccccc2)C(=O)NCCN(C)C)cc1
9,138 to 140,CCCc1c(OCCCS(=O)(=O)c2ccc(C(=O)NCC(=O)OCC)cc2)ccc(C(C)=O)c1O
10,122 to 123,COC(=O)Cc1nc(-c2ccccc2)c2cc(Cl)ccc2n1
11,150 to 151,CC(NC1=Nc2ccccc2C(=O)N(C)C1)c1ccccc1 (stereo not given)
12,92 to 93,FC(F)(F)c1cccc(C(CC2=NCCN2)c2ccc3ccccc3n2)c1 (stereo not given)
13,115 to 117,COc1cccc(C2=CCN(C(=O)CSCc3c[nH]c4ccccc34)CC2)c1
14,> 240,COc1ccc(-c2ccc(COc3cc4c(cc3CCN(CCCCC(=O)O)Cc3ccc(C(=O)O)cc3)CCCC4)cc2)cc1
15,44 to 47,CC(C)CCOc1ccc([N+](=O)[O-])cc1OCCC(C)C
16,147 to 149,CCCn1nc2c(N)nc3c(c2c1CCCc1cc(C(C)C)no1)CCCC3
17,280 to 281,O=C(O)COc1ccc2c(=O)c3ccccc3oc2c1Cl
18,206 to 208,COc1cccc(CNC(=O)c2nc3ccc(C#N)cc3c(=O)[nH]2)c1
19,200 to 202,COCC1OC(n2cnc3c(N)nc(Cl)nc32)C(O)C1O (stereo not given)
20,122 to 124,O=C(c1cccs1)c1cccc2c1CCC2C(=O)O (stereo not given)
